What was measured:
BV-2 microglia = test: LPS-induced cytokine expression in BV-2 microglia (qRT-PCR); assay type: cell-based, mouse; conditions: 10 µM pretreatment, LPS 1 µg/ml for 3 h
Description: RAW 264.7 macrophages or BMDMs were seeded at a density of 250,000 cells per well into a 12-well tissue culture plate in 1 ml of media and left to incubate overnight. The indicated drug or vehicle control was added to each well, and the plate was agitated and left to incubate for 10 min. The cells were then treated with LPS (1 μg/ml) or an equivalent volume of PBS, agitated, and left to incubate for 3 h. Cells were washed with PBS and then RNA isolation was performed using RNeasy Plus Micro Kit (74134; Qiagen). cDNA was produced using GoScript Reverse Transcriptase ([…]; Promega) and a quantitative PCR was performed using SensiFast SYBR (98020; Bioline) and Bio-Rad CFX Connect thermocycler. Each datum represents an individual, biological replicate that is the mean of duplicate technical replicates. Fold-changes are all reported relative to untreated controls for each experiment and were calculated using the ΔΔCt method, with β2-microglobulin used as the housekeeping gene for each sample. The experiment was performed similarly with BV-2 microglia and alveolar macrophages, except that cells were plated at a density of 100,000 cells per well into a 24-well tissue culture plate with 1 ml of media per well.

alveolar macrophages = test: LPS-induced cytokine expression in primary alveolar macrophages (qRT-PCR); assay type: cell-based, mouse; conditions: 10 µM pretreatment, LPS 1 µg/ml for 3 h
Description: Alveolar macrophages were isolated and cultured from wildtype (WT) C57BL/6 mice (Strain #000664; Jackson Laboratory) using an established protocol ([Nayak et al., 2018]). […] Using a 5-ml syringe filled with 3 ml of bronchoalveolar lavage buffer (“BAL buffer”: Ca^2+- and Mg^2+-free PBS + 1 mM EDTA), the lungs were first filled with ∼2 ml of BAL buffer, then flushed five times in a cycle involving the installation and removal of 1 ml of buffer. The collected BAL fluid was pooled and the cyclical perfusion step was repeated with fresh buffer until a total of ∼10 ml of BAL fluid was collected. BAL fluid with gross evidence of blood contamination was discarded. A pellet was obtained through centrifugation at 500 × g for 5 min, and contaminating red blood cells were lysed by resuspending cells for 5 min in 5 ml of ice-cold ACK Lysis buffer (A1049201; Gibco). The cells were then pelleted at 500 × g for 5 min, resuspended in alveolar macrophage culture media (DMEM supplemented with 10% FBS, 20% L-929 culture supernatant, 1 mM sodium pyruvate, 10 mM HEPES, and 1× penicillin/streptomycin), and plated onto untreated tissue culture dishes for 24 h. The media was exchanged prior to use to remove unattached cells.
RAW 264.7 macrophages or BMDMs were seeded at a density of 250,000 cells per well into a 12-well tissue culture plate in 1 ml of media and left to incubate overnight. The indicated drug or vehicle control was added to each well, and the plate was agitated and left to incubate for 10 min. […] Cells were washed with PBS and then RNA isolation was performed using RNeasy Plus Micro Kit (74134; Qiagen). cDNA was produced using GoScript Reverse Transcriptase (A5004; Promega) and a quantitative PCR was performed using SensiFast SYBR (98020; Bioline) and Bio-Rad CFX Connect thermocycler. […] Fold-changes are all reported relative to untreated controls for each experiment and were calculated using the ∆∆Ct method, with β2-microglobulin used as the housekeeping gene for each sample. […]

CCCCCCCCc1ccc([C@@H]2CC[C@@](N)(CO)C2)cc1 [VPC01091.4, ((1S,3R)-1-amino-3-(4-octylphenyl)cyclopentyl)methanol]
LPS-induced inflammatory cytokine expression (BV-2 microglia): direct anti-inflammatory effects
LPS-induced CCL4 expression (alveolar macrophages): significantly suppressed
LPS-induced IL-1β expression (alveolar macrophages): significantly suppressed
LPS-induced TNFα expression (alveolar macrophages): significantly suppressed

Source: article PMC10635799, “Analogs of FTY720 inhibit TRPM7 but not S1PRs and exert multimodal anti-inflammatory effects” (The Journal of General Physiology, 2023)
